Test results published in patent publication US8299048B2, “Hexahydrocyclopentyl[f]indazole sulfonamides and derivatives thereof as selective glucocorticoid receptor modulators” (Merck Sharp & Dohme Corp., priority 2008, dated 2012).
Where two headings read alike, the source gives them in different places.

Biological target: T1, human GR (Homo sapiens, UniProt P04150)
T1 sequence (P04150 1-777): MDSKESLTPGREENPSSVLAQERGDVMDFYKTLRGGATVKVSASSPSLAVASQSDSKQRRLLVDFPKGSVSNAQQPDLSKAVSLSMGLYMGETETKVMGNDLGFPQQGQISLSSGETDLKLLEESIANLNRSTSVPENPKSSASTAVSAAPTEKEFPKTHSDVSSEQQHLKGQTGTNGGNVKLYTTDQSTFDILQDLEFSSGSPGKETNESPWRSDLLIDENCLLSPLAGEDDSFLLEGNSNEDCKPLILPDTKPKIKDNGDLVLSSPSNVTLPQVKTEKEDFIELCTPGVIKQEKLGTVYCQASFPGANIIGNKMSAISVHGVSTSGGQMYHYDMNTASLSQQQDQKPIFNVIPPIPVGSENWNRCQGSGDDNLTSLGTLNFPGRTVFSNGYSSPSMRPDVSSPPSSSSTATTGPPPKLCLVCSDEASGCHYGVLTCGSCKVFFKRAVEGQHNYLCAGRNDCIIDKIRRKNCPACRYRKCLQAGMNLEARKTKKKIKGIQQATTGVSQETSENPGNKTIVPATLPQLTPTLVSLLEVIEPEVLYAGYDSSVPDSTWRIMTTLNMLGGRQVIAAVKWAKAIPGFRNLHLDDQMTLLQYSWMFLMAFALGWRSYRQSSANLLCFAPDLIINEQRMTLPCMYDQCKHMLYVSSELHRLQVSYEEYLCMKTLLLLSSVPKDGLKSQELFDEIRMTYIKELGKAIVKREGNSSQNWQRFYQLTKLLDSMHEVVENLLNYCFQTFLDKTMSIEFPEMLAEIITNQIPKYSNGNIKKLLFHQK
Assay: Transrepression Assay (GITAR), TNFα-β-lactamase reporter in U937 cells
Assay type: cell-based
Design: U937 cells contain an endogenous glucocorticoid receptor (GR); endogenous in cells; host or cells: U937 cells stably transfected with the TNF-alpha promoter/beta-lactamase reporter
Conditions: for GITAR > GRAMM % SEP: GITAR Emax minus GRAMMER Emax; for EC50: U937 cells, inflection point, read-out: Transrepression U937 Cells GITAR IP
Outline: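 Repression normalised to 100 nM dexamethasone (100%), measured with CCF2-AM β-lactamase substrate after 70–90 min at room temperature. Stably transfected U937 cells were exposed to compound 30–45 min, then to PMA (5 ng/ml final) plus LPS (100 ng/ml final) overnight (~18 hr), 37° C.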

[1] = U-937, U937 cells, maximum activity, read-out: Transrepression U937 Cells GITAR Emax
[2] = U-937, activity repressed by 100 nM dexamethasone alone set as 100%, read-out: maximal activity in the transrepression (GITAR) assay

Structure (SMILES)	GITAR > GRAMM % SEP	EC50	Emax [1]	Emax [2]
C[C@]12Cc3cnn(-c4ccc(F)cc4)c3C=C1CC[C@@H]2CN(CC1CC1)S(=O)(=O)/C=C/c1ccccc1 [Example 13, (E)-N-(cyclopropylmethyl)-N-{[(4αR,5S)-1-(4-fluorophenyl)-4α-methyl-1,4,4α,5,6,7-hexahydrocyclopenta[f]indazol-5-yl]methyl}-2-phenylethylenesulfonamide]	7.8%	305 nM	16.1%	> 5%
CNC(=O)Nc1ccc(S(=O)(=O)N(CC2CC2)C[C@H]2CCC3=Cc4c(cnn4-c4ccc(F)cc4)C[C@@]32C)c(Cl)c1 [Example 14, 2-chloro-N-(cyclopropylmethyl)-N-{[(4αR,5S)-1-(4-fluorophenyl)-4α-methyl-1,4,4α,5,6,7-hexahydrocyclopenta[f]indazol-5-yl]methyl}-4-{[(methylamino)carbonyl]amino}-benzenesulfonamide]	34.1%	553 nM	59.3%	> 5%
C[C@]12Cc3cnn(-c4ccc(F)cc4)c3C=C1CC[C@@H]2CN(CC1CC1)S(=O)(=O)c1ccc(F)c(Cl)c1 [Example 15, 3-chloro-N-(cyclopropylmethyl)-4-fluoro-N-{[(4αR,5S)-1-(4-fluorophenyl)-4α-methyl-1,4,4α,5,6,7-hexahydrocyclopenta[f]indazol-5-yl]methyl}benzenesulfonamide]	31.4%	258 nM	59%	> 5%
C[C@]12Cc3cnn(-c4ccc(F)cc4)c3C=C1CC[C@@H]2CN(CCC#N)S(=O)(=O)c1ccccc1F [Example 16, N-(2-cyanoethyl)-2-fluoro-N-{[(4αR,5S)-1-(4-fluorophenyl)-4α-methyl-1,4,4α,5,6,7-hexahydrocyclopenta[f]indazol-5-yl]methyl}benzenesulfonamide]	–	268 nM	84.5%	> 5%
C[C@]12Cc3cnn(-c4ccc(F)cc4)c3C=C1CC[C@@H]2CN(CCO)S(=O)(=O)c1ccccc1F [Example 17, 2-fluoro-N-{[(4αR,5S)-1-(4-fluorophenyl)-4α-methyl-1,4,4α,5,6,7-hexahydrocyclopenta[f]indazol-5-yl]methyl}-N-(2-hydroxyethyl)benzenesulfonamide]	–	347 nM	82.1%	> 5%
COC(=O)c1ccccc1S(=O)(=O)N(CC1CC1)C[C@H]1CCC2=Cc3c(cnn3-c3ccc(F)cc3)C[C@@]21C [Example 18, methyl 2-[((cyclopropylmethyl){[(4αR,5S)-1-(4-fluorophenyl)-4α-methyl-1,4,4α,5,6,7-hexahydrocyclopenta[f]indazol-5 yl]methyl}amino)sulfonyl]benzoate]	15.3%	415 nM	35.3%	> 5%
C[C@]12Cc3cnn(-c4ccc(F)cc4)c3C=C1CC[C@@H]2CN(CCO)S(=O)(=O)c1ccc(F)c(Cl)c1 [Example 19, 3-chloro-4-fluoro-N-{[(4αR,5S)-1-(4-fluorophenyl)-4α-methyl-1,4,4α,5,6,7-hexahydrocyclopenta[f]indazol-5-yl]methyl}-N-(2-hydroxyethyl)benzenesulfonamide]	49.1%	1720 nM	69.8%	> 5%
C[C@]12Cc3cnn(-c4ccc(F)cc4)c3C=C1CC[C@@H]2CN(CC#N)S(=O)(=O)c1ccc(F)c(Cl)c1 [Example 20, 3-chloro-N-(cyanomethyl)-4-fluoro-N-{[(4αR,5S)-1-(4-fluorophenyl)-4α-methyl-1,4,4α,5,6,7-hexahydrocyclopenta[f]indazol-5-yl]methyl}benzenesulfonamide]	1.6%	373 nM	69.7%	> 5%
C[C@]12Cc3cnn(-c4ccc(F)cc4)c3C=C1CC[C@@H]2CN(CC1CC1)S(=O)(=O)Cc1ccccc1 [Example 21, N-(cyclopropylmethyl)-N-{[(4αR,5S)-1-(4-fluorophenyl)-4α-methyl-1,4,4α,5,6,7-hexahydrocyclopenta[f]indazol-5-yl]methyl}-1-phenylmethanesulfonamide]	–	365 nM	58.7%	> 5%
Cc1oncc1S(=O)(=O)N(CC#N)C[C@H]1CCC2=Cc3c(cnn3-c3ccc(F)cc3)C[C@@]21C [Example 23, N-(cyanomethyl)-N-{[(4αR,5S)-1-(4-fluorophenyl)-4α-methyl-1,4,4α,5,6,7-hexahydrocyclopenta[f]indazol-5-yl]methyl}-5-methylisoxazole-4-sulfonamide]	31.3%	2250 nM	34%	> 5%
C[C@]12Cc3cnn(-c4ccc(F)cc4)c3C=C1CC[C@@H]2CN(CC#N)S(=O)(=O)c1cc(Cl)c(Cl)s1 [Example 24, 4,5-dichloro-N-(cyanomethyl)-N-{[(4αR,5S)-1-(4-fluorophenyl)-4α-methyl-1,4,4α,5,6,7-hexahydrocyclopenta[f]indazol-5-yl]methyl}thiophene-2-sulfonamide]	27.2%	565 nM	37.7%	> 5%
C[C@]12Cc3cnn(-c4ccc(F)cc4)c3C=C1CC[C@@H]2CN(CC#N)S(=O)(=O)c1ccc(F)c(F)c1 [Example 25, N-(cyanomethyl)-3,4-difluoro-N-{[(4αR,5S)-1-(4-fluorophenyl)-4α-methyl-1,4,4α,5,6,7-hexahydrocyclopenta[f]indazol-5-yl]methyl}benzenesulfonamide]	13.0%	222 nM	89.4%	> 5%
C[C@]12Cc3cnn(-c4ccc(F)cc4)c3C=C1CC[C@@H]2CN(CC#N)S(=O)(=O)c1cccc(Cl)c1Cl [Example 26, 2,3-dichloro-N-(cyanomethyl)-N-{[(4αR,5S)-1-(4-fluorophenyl)-4α-methyl-1,4,4α,5,6,7-hexahydrocyclopenta[f]indazol-5-yl]methyl}benzenesulfonamide]	10.2%	25 nM	16%	> 5%
C[C@]12Cc3cnn(-c4ccc(F)cc4)c3C=C1CC[C@@H]2CN(CC#N)S(=O)(=O)c1ccc(Cl)c(C(F)(F)F)c1 [Example 27, 4-chloro-N-(cyanomethyl)-N-{[(4αR,5S)-1-(4-fluorophenyl)-4α-methyl-1,4,4α,5,6,7-hexahydrocyclopenta[f]indazol-5-yl]methyl}-3-(trifluoromethyl)benzenesulfonamide]	10.0%	638 nM	13%	> 5%
C[C@]12Cc3cnn(-c4ccc(F)cc4)c3C=C1CC[C@@H]2CN(CC#N)S(=O)(=O)c1ccc(C#N)cc1 [Example 28, 4-cyano-N-(cyanomethyl)-N-{[(4αR,5S)-1-(4-fluorophenyl)-4α-methyl-1,4,4α,5,6,7-hexahydrocyclopenta[f]indazol-5-yl]methyl}benzenesulfonamide]	34.8%	662 nM	78.8%	> 5%
Cc1cc(S(=O)(=O)N(CC#N)C[C@H]2CCC3=Cc4c(cnn4-c4ccc(F)cc4)C[C@@]32C)c(C)cc1Cl [Example 29, 4-chloro-N-(cyanomethyl)-N-{[(4αR,5S)-1-(4-fluorophenyl)-4α-methyl-1,4,4α,5,6,7-hexahydrocyclopenta[f]indazol-5-yl]methyl}-2,5-dimethylbenzenesulfonamide]	26.2%	838 nM	30.9%	> 5%
C[C@]12Cc3cnn(-c4ccc(F)cc4)c3C=C1CC[C@@H]2CN(CC#N)S(=O)(=O)Cc1cccc(C(F)(F)F)c1 [Example 30, N-(cyanomethyl)-N-{[(4αR,5S)-1-(4-fluorophenyl}-4α-methyl-1,4,4α,5,6,7-hexahydrocyclopenta[f]indazol-5-yl]methyl}-1-[3-(trifluoromethyl)phenyl]methanesulfonamide]	16.4%	417 nM	19.9%	> 5%
Cc1ccc(S(=O)(=O)N(CC#N)C[C@H]2CCC3=Cc4c(cnn4-c4ccc(F)cc4)C[C@@]32C)s1 [Example 31, N-(cyanomethyl)-N-{[(4αR,5S)-1-(4-fluorophenyl}-4α-methyl-1,4,4α,5,6,7-hexahydrocyclopenta[f]indazol-5-yl]methyl}-5-methylthiophene-2-sulfonamide]	34.0%	679 nM	54.8%	> 5%
